Laboratory results reported in EP1452605A1, “Method for determining antiviral activity” (Universiteit Utrecht Holding B.V., priority 2003, dated 2004).

How the values were obtained:
[1] = target: HIV-1 RT (Human immunodeficiency virus type 1 group M subtype B, UniProt P04585); test: Cell-free RT assay (primer extension); assay type: biochemical
Description: The HIV-1 RNA template (positions +1 to +368, with +1 being the capped G residue) was synthesized in vitro with T7 RNA polymerase as described previously ^27. In the reverse transcription assay, 10 ng of the RNA template was incubated with 1.5 µg calf liver tRNA ([…] total tRNA, of which approximately 1.2 pmol tRNA^lys3, Boehringer) or 20 ng of a DNA primer complementary to the primer binding site (PBS) (positions +182 to +202) in 12 µl annealing buffer (83 mM Tris-HCl pH 7.5, 125 mM KCl) at 85 °C for 2 min and 65 °C for 10 min, followed by cooling to room temperature over a 1h period. Reverse transcription was initiated by the addition of 6 µl RT buffer (9 mM MgCl2, 30 mM DTT, 150 µg/ml actinomycine D, 30 µM dATP, dGTP and dTTP and 1.5 µM dCTP), 0.5 µl [α-^32P]dCTP and 0.5 U HIV-1 RT (MRC) in the presence or absence of APHS (10, 30, 300 and 1000 µM) or 10% ethanol. The reaction was incubated for 30 min at 37 °C. The cDNA product was precipitated in 0.3 M sodiumacetate, pH 5.2 and 80% ethanol at-20°C, dissolved in formamide loading buffer and analyzed on a denaturing 6% polyacrylamide-urea sequencing gel.

[2] = in vitro; details: human, pbmc
[3] = system: 4602; test: Drug susceptibility assay (cell-killing MTT assay) in MT-2 cells; details: Human immunodeficiency virus 1, MT2, 120 h
Description: (§4) The cells were maintained at 37°C, 5% CO2. One day prior to the experiments, the cells were passaged 1:1 in a concentration of 1 × 10^6 cells/ml.
(§5) The genes that contain the drug resistance mutations are excised from the clinical isolates and cloned into the genetic background of HXB2. Thus all tested HIV-1 strains have the same genetic background. […] This strain contains an insertion of two a.a. between codons 68 and 69 of RT as well as an a.a. change at codon 67.
(§6) After 5 days of incubation a cellular viability assay was performed as described above. In this case, the amount of formazan reflects the number of cells protected by the drug against killing by the virus and is used as a read out for drug susceptibility.

[4] = system: RSV serotype A; test: RSV infection of HEp-2 cells, FACS with FITC anti-RSV antibody; assay type: cell-based, Respiratory syncytium virus (RSV); details: HEp-2 cells, 4, 5 and 6 days, all APHS concentrations tested
Description: RSV infection of the HEp-2 cell line was performed as described elsewhere (Hament J-M et al., submitted for publication). Briefly, HEp-2 cells were recovered from the culture flasks by trypsinization. Concentrations of HEp-2 cells were determined by microscopic observation in order to have a confluent monolayer at the day of measurement. HEp-2 cells were incubated with APHS and infected with different dilutions of RSV in order to have a good infection at the day of measurement. […] The cells were washed with PBS^2+ (PBS containing 0.15 mM Ca^2+ and 0.5 mM Mg^2+) and incubated with murine-anti-RSV monoclonal antibody conjugated to fluorescein isothiocyanate (FITC) (DAKO, Cambridgeshire, UK) for 15 minutes at 37 °C. Afterwards, cells were washed and resuspended in PBS^2+. Percentage of fluorescent cells was analyzed by FACSCalibur flow cytometer (Becton Dickinson, CA, USA) with computer assisted evaluation data (CellQuest Pro).

[5] = system: Mouse L cells; test: Cytotoxicity in mouse L cells by microscopic observation
Description: After 24h, the cytopatic effect (CPE) of the virus and the cytotoxicity of the compounds were scored by microscopic observation.

[6] = system: 41+215Y; test: Drug susceptibility assay (cell-killing MTT assay) in MT-2 cells; details: AZT-resistant strain 41+215Y, 5 days
Description: as §4, §5, §6

[7] = system: 3096; test: as above; details: Human immunodeficiency virus 1, MT2, 120 h
Description: as §4, §5, §6

[8] = system: HIV-1Ba-L; test: HIV-1 infection of PBMC, p24-core antigen ELISA; assay type: cell-based
Description: (§1) To correct for the input virus, an extra control consisting of medium containing the same amount of input virus as added to the cells was included in the experiment. The amount of p24 in this control was subsequently subtracted from the p24 values of the samples in order to obtain the exact amount of p24 produced by the cells. p24-core antigen quantification by ELISA After 2 or 7 days incubation, samples of the supernatants were collected, inactivated by addition of Empigen (Calbiochem, La Jolla, CA, USA) and by heat inactivation at 56°C for 30 min. p24-core antigen concentration was determined by an enzyme linked immunoabsorbent assay (ELISA) (AMPAK™, DAKO, Cambridgeshire, UK) as described previously ^18,19. The optical density values were converted into p24 concentration (ng/ml) with the use of a calibration curve made by serial dilutions of recombinant p24 protein (NIBSC, UK) that was submitted to the same treatment as the samples.
(§2) To correct for the input virus, an extra control consisting of medium containing the same amount of input virus as added to the cells was included in the experiment. The amount of p24 in this control was subsequently subtracted from the p24 values of the samples in order to obtain the exact amount of p24 produced by the cells.
(§3) After 7 days incubation, samples of the supernatants were collected, inactivated by addition of Empigen (Calbiochem, La Jolla, CA, USA) and by heat inactivation at 56°C for 30 min. p24-core antigen concentration was determined by an ELISA (AMPAK™, DAKO, Cambridgeshire, UK) as described previously ^39,40. The optical density values were converted into p24 concentration (ng/ml) with the use of a calibration curve made by serial dilutions of recombinant p24 protein (NIBSC, UK) that was submitted to the same treatment as the samples.
as §2
as §3, with “enzyme linked immunoabsorbent assay (ELISA)” for “ELISA”, “15,16.” for “^39,40.”

[9] = system: FIV UT-113; test: FIV infection of CrFK cells, FIV p24 ELISA; assay type: cell-based, Feline immunodeficiency virus (FIV); details: 100 to 0.024 µM, p24 after 6 days
Description: After 6 days of incubation FIV replication was measured by quantification of the p24 viral core antigen in the cell culture supernatant by an FIV p24 enzyme-linked immunoabsorbent assay as described previously ^19.

[10] = system: HIV-1HXB2; test: HIV-1 infection of PBL, p24-core antigen ELISA; assay type: cell-based; details: Human immunodeficiency virus 1, 168 h; PBL infected with HIV-1HXB2, p24 antigen after 7 days
Description: as §1

[11] = system: PBMC; test: Cellular viability assay (MTT) of PBMC; details: PBMC viability, 7 days
[12] = concentrations of APHS up to 100 mg/kg; cited from earlier work

Compound: CCCCC#CCSc1ccccc1OC(C)=O [APHS, o-(acetoxyphenyl)hept-2-ynyl sulfide]
- RT activity in the primer extension assay [1]: no inhibition of RT activity
- amount of reverse transcription product ([1]; 1000 µM APHS, effect probably due to the ethanol in the sample): decreased the amount of reverse transcription product
- cDNA formation ([1]; APHS 10 to 300 µM): did not affect cDNA formation
- CC50 at 168 h [2]: 105 µM
- IC50 [3]: 5 µM
- inhibition of RSV replication [4]: no inhibition of RSV replication
- cytotoxicity by microscopic observation [5]: not cytotoxic
- IC50 [6]: 2100 ± 1000 nM
- IC50 ([6]; Human immunodeficiency virus 1, MT2, 120 h): 2000 nM
- IC50 [7]: 4 µM
- IC50 ([8]; Human immunodeficiency virus 1, 168 h, PBMC infected with HIV-1Ba-L, p24 antigen after 7 days, read-out: IC50): 6 µM
- inhibition at 30 µM ([8]; Human immunodeficiency virus 1, 30 µM APHS, PBMC, read-out: inhibit HIV-1Ba-L replication): 80%
- effect on FIV replication [9]: did not show any effect
- IC50 [10]: 12 µM
- cytotoxic at concentrations above [11]: above 30 µM
- toxicity in the rat air pouch model [12]: no toxicity
